Results published in PMC11249646, “Small-Molecule Disruptors of the Interaction between Calcium- and Integrin-Binding Protein 1 and Integrin αIIbβ3 as Novel Antiplatelet Agents” (ACS Pharmacology & Translational Science, 2024).
Like-named read-outs stand apart in the source and are kept apart here.

Target: T1, CIB1 and αIIb interaction (CIB1-GST : F-αIIb peptide) (Homo sapiens, UniProt Q99828)
T1 construct: made in house; host or cells: BL-21 plus RIL cells (E. coli)
T1 sequence (Q99828 1-191): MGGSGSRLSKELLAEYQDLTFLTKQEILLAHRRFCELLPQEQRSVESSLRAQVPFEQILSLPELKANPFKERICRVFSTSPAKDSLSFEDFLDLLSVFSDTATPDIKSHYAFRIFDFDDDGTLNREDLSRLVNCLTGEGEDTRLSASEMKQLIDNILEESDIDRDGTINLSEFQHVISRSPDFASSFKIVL
Assay: FP assay, 1536-well qHTS format (primary and confirmatory screen)
Type: binding
Details: for Efficacy (%): negative = inhibition; for Curve Class: negative sign = inhibitory curve; for IC50: read-out: IC50

[1] = qHTS primary screen of LOPAC/NPACT libraries
[2] = qHTS primary screen hits, Table S2
[3] = qHTS primary screen hits, Table S2, several classes where COUNT > 1
[4] = qHTS FP screen hits, Table S2, one class per curve where COUNT > 1

SMILES | Efficacy (%) [1] [%] | Curve Class [1] | IC50 [1] [µM] | Efficacy (%) [2] [%] | IC50 [2] [µM] | also measured
CCCc1c(OCCCOc2ccc(OCC(=O)O)cc2)ccc(C(C)=O)c1O [NCGC00015599-05] | -25 | -2.2 | 50.1 | – | – | –
CN1CCc2ccccc2Cc2[nH]c3ccccc3c2CC1 [NCGC00015614-05] | -28 | -2.4 | 31.6 | – | – | –
Cc1c(OCC(F)(F)F)ccnc1C[S+]([O-])c1nc2ccccc2[nH]1 (centres unmarked) [NCGC00015615-15] | – | – | – | -26 | 50.1 | Curve Class [2]: -2.4
O=C(O)/C(=C/c1c(C(=O)O)[nH]c2cc(Cl)cc(Cl)c12)c1ccccc1 [NCGC00015639-04] | -29 | -2.2 | 56.2 | – | – | –
CC(C)NCC(O)c1cc(O)cc(O)c1.CC(C)NCC(O)c1cc(O)cc(O)c1.O=S(=O)(O)O (centres unmarked) [NCGC00015655-09] | – | – | – | -51 | 56.2 | Curve Class [3]: -2.4
CN1CCC2(CCN3CCc4c(oc5ccccc45)C3C2)N(C)C1=O.Cl (centres unmarked) [NCGC00015699-03] | -11 | -1.4 | 17.8 | – | – | –
CN(N=O)c1ccc(O)c(O)c1 [NCGC00015706-04] | – | – | – | -66 | 56.2 | Curve Class [3]: -2.4
CCOC(=O)C1=C(C)NC(C)=C(C(=O)OC)C1c1cccc([N+](=O)[O-])c1 (centres unmarked) [NCGC00015713-10] | -23 | -2.4 | 63.1 | – | – | –
O=c1[nH]c2cc(C(F)(F)F)ccc2n1-c1cc(C(F)(F)F)ccc1O [NCGC00015720-07] | -30 | -2.4 | 44.7 | – | – | –
CN1Cc2c(N)cccc2C(c2ccccc2)C1.O=C(O)/C=C\C(=O)O (centres unmarked) [NCGC00015727-06] | – | – | – | -62 | 50.1 | Curve Class [2]: -2.2
O=C1C(SCCO)=C(SCCO)C(=O)c2ccccc21 [NCGC00015729-08] | – | – | – | -77 | 44.7 | Curve Class [2]: -2.2
O=C(Nc1ccc([N+](=O)[O-])cc1Cl)c1cc(Cl)ccc1O [NCGC00015735-08] | -12 | -2.4 | 63.1 | – | – | –
COC(=O)C1=C(C)NC(C)=C(C(=O)OC)C1c1ccccc1[N+](=O)[O-] [NCGC00015748-13] | -24 | -1.2 | 11.2 | – | – | –
CCCCCCC/C=C\CCCCCCCCC(=O)O [NCGC00015764-04] | -27 | -2.4 | 31.6 | – | – | –
O=c1onc2cnc3ccccc3n12 [NCGC00015770-05] | -21 | -2.4 | 56.2 | – | – | –
CCCC(C(=O)OCCN(CC)CC)(c1ccccc1)c1ccccc1.Cl [NCGC00015799-04] | -14 | -2.4 | 56.2 | – | – | –
O=C(O)C(F)(F)F.O=c1[nH]c2ccccc2n1C1CCN(CCCC(c2ccc(F)cc2)c2ccc(F)cc2)CC1 [NCGC00015802-18] | – | – | – | -216 | 89.1 | Curve Class [2]: -3
C=Cc1c(C)c2cc3[nH]c(cc4nc(cc5nc(cc1[nH]2)C(C)=C5CCC(=O)O)C(CCC(=O)O)=C4C)c(C)c3C=C [NCGC00015844-10] | – | – | – | – | – | Efficacy (%) (qHTS FP screen hits, Table S2): -75%; Curve Class [4]: -2.2; IC50 (qHTS FP screen hits, Table S2): 42.2 µM
O.O.O=c1c(O)c(-c2ccc(O)c(O)c2)oc2cc(O)cc(O)c12 [NCGC00015870-27] | – | – | – | -30 | – | –
Cc1nc2sccn2c(=O)c1CCN1CCC(=C(c2ccc(F)cc2)c2ccc(F)cc2)CC1 [NCGC00015877-09] | -22 | -2.2 | 56.2 | – | – | –
COC(=O)C1C(O)CCC2CN3CCc4c([nH]c5ccccc45)C3CC21 (centres unmarked) [NCGC00015878-08] | -68 | -2.2 | – | – | – | –
O=C(c1cc(O)c(O)c([N+](=O)[O-])c1)c1ccccc1F [NCGC00015881-04] | -35 | -2.2 | 39.8 | – | – | –

SMILES | Efficacy (%) [1] [%] | Curve Class [1] | IC50 [1] [µM] | Efficacy (%) [2] [%] | IC50 [2] [µM] | also measured
COc1ccccc1N1CCNCC1.Cl [NCGC00015906-04] | – | – | – | -80 | 79.4 | Curve Class [2]: -3
O=C(O)c1ccccc1Nc1cccc(OCc2ccc3ccccc3n2)c1 [NCGC00015965-05] | – | – | – | -42 | 50.1 | Curve Class [2]: -2.2
O=C1CCC(N2C(=O)c3ccccc3C2=O)C(=O)N1 (centres unmarked) [NCGC00015989-17] | – | – | – | -28 | 50.1 | Curve Class [3]: -2.4
CCN(CC)C(=S)SSC(=S)N(CC)CC [NCGC00016000-10] | – | – | – | -67 | 35.8 | –
C/C(=C\c1ccc(C(=O)O)cc1)c1ccc2c(c1)C(C)(C)CCC2(C)C [NCGC00016015-10] | -10 | -1.4 | 39.8 | – | – | –
Cn1cnc2c1c(=O)[nH]c(=O)n2C [NCGC00016023-18] | – | – | – | -74 | 89.1 | Curve Class [3]: -3
N#C/C(=C\c1ccc(O)c(O)c1)C(=O)NCCCNC(=O)/C(C#N)=C/c1ccc(O)c(O)c1 [NCGC00016027-04] | -24 | -1.2 | – | – | – | –
N#C/C(=C\c1ccc(O)c(O)c1)C(=O)NCCc1ccccc1 [NCGC00016029-05] | -15 | -1.2 | 7.9 | – | – | –
COC[C@H]1OC(=O)c2coc3c2[C@@]1(C)C1=C(C3=O)C2CCC(=O)[C@@]2(C)C[C@H]1OC(C)=O (some centres unmarked) [NCGC00016094-12] | – | – | – | – | – | Efficacy (%) (qHTS FP screen hits, Table S2): -33%; Curve Class [4]: -2.2; IC50 (qHTS FP screen hits, Table S2): 29.3 µM
CCCOc1ccccc1-c1nc(=O)c2nn[nH]c2[nH]1 [NCGC00016105-05] | -22 | -1.4 | 14.1 | – | – | –
CC(C)N(CCC(=O)c1ccc2ccccc2c1)Cc1ccccc1.Cl [NCGC00016107-09] | -65 | -1.2 | 28.2 | – | – | –
COc1ccc(NS(=O)(=O)c2ccc(N)cc2)nn1 [NCGC00016324-09] | – | – | – | -139 | 39.8 | Curve Class [2]: -3
Oc1c(I)cc(Cl)c2cccnc12 [NCGC00016391-13] | – | – | – | -32 | 56.2 | Curve Class [3]: -2.4
CC(=O)O.Cc1cc2c(C(C)C)c(O)c(O)c(C=O)c2c(O)c1-c1c(C)cc2c(C(C)C)c(O)c(O)c(C=O)c2c1O [NCGC00016423-14] | – | – | – | – | – | Efficacy (%) (qHTS FP screen hits, Table S2): -64%; IC50 (qHTS FP screen hits, Table S2): 29.4 µM
O=C(CCCN1CCC(n2c(=O)[nH]c3ccccc32)CC1)c1ccc(F)cc1 [NCGC00016602-04] | – | – | – | -58 | 50.1 | Curve Class [2]: -2.4
COc1ccc2c(c1)C(=O)N(CCc1ccc(S(=O)(=O)NC(=O)NC3CCCCC3)cc1)C(=O)C2(C)C [NCGC00016819-06] | -31 | -2.4 | 44.7 | – | – | –
Nc1cc(-c2ccncc2)c[nH]c1=O [NCGC00016896-06] | – | – | – | -48 | 50.1 | Curve Class [3]: -2.2
CCC(C)(C)C(=O)O[C@H]1C[C@@H](C)C=C2C=C[C@H](C)[C@H](CC[C@@H]3C[C@@H](O)CC(=O)O3)[C@H]21 [NCGC00017324-07] | – | – | – | -17 | – | Curve Class [3]: -2.4
CCCN1C[C@H](CSC)C[C@@H]2c3cccc4[nH]cc(c34)C[C@H]21 [NCGC00017366-05] | -29 | -2.2 | 50.1 | – | – | –
Fc1ccc(C(c2ccc(F)cc2)N2CCN(C/C=C/c3ccccc3)CC2)cc1 [NCGC00018102-06] | – | – | – | -167 | 19.2 | Curve Class [2]: -2.1
Cl.Cl.Nc1ccc(/N=N/c2ccccc2)c(N)n1 [NCGC00018130-09] | – | – | – | -22 | 79.4 | Curve Class [2]: -2.4
